Organism: Rattus norvegicus
Assay: Compound was evaluated in vitro, for the ability to inhibit [3H]- dopamine uptake into synaptosomes (prepared from rat striatal tissues).
Format: functional
Conditions: Brain

Compound	IC50
COC(=O)C1C2CC[C@H](C[C@@H]1OC(=O)Nc1cccc([N+](=O)[O-])c1)N2C (stereo partly specified)	0.178 µM
COC(=O)C1C2CC[C@H](C[C@@H]1OC(=O)Nc1ccc([N+](=O)[O-])cc1)N2C (stereo partly specified)	5.7 µM
COC(=O)C1C2CC[C@H](C[C@@H]1OC(=O)Nc1ccccc1)N2C (stereo partly specified)	52.6 µM
COC(=O)C1C2CC[C@H](C[C@@H]1OC(=O)Nc1ccc(N)cc1)N2C (stereo partly specified)	> 100 µM
COC(=O)C1C2CC[C@H](C[C@@H]1OC(=O)Nc1cccc(N)c1)N2C (stereo partly specified)	23.1 µM
COC(=O)[C@H]1[C@@H](OC(=O)c2ccccc2)C[C@@H]2CC[C@H]1N2C [COCAINE]	0.213 µM

Reference: ChEMBL document CHEMBL1125918, “Synthesis of 3-carbamoylecgonine methyl ester analogues as inhibitors of cocaine binding and dopamine uptake” (J Med Chem, 1991)
